This passage reports inhibition, IC50 and body weight loss results from US11925629B2, “Heterocyclic inhibitors of ERK1 and ERK2 and their use in the treatment of cancer” (Asana Biosciences, LLC, priority 2015, dated 2024).

Series [1] concerns phospho-RSK (the downstream target of ERK1/2). Nature of the series: Pharmacodynamic assay, phospho-RSK in A375 tumor samples. The series is classed as in vivo, mice. Conditions: Mus musculus, A-375; A375 tumor samples harvested at 1 h after dosing at 50 mg/kg PO, compared to vehicle control. The method, then:
(§1) Foxn1 nu/nu strain of female mice (obtained from Charles River Laboratories, USA), 8-10 weeks of age, body weight range 23-25 g, were used for the tumor xenograft efficacy studies. Human cancer cell lines (such as melanoma A375, colorectal HT29, pancreatic BxPC3, colorectal HCT116, and lung A549) were first grown in vitro, and then about five million (5×10^6) of these cells in 100 μL of serum free medium were mixed with an equal amount of matrigel, and the entire mixture was injected subcutaneously at the right flank region of mice. The tumors were measured with Vernier calipers periodically after the first week of injection. When the tumor volume reached 120-150 mm^3 (about 3-4 weeks after injection) the animals were randomized into different groups so that their tumor volume was approximately the same in all groups.
For PO dosing, the compounds were prepared in a formulation containing 0.5% Methyl cellulose and 0.01% Tween 80. For IV, SC, or IP dosing, the compounds were prepared in 6% solutol-ethanol (1:1), 6% DMSO and 88% saline. Animals were dosed with compounds prepared in specific formulations via PO, IP or SC route either QD or BID at the required doses. Tumors size and body weights were measured twice or thrice in a week. Tumors were harvested at the end of the study after euthanizing the animals according to approved protocols. […]

The target of another series is T1, ERK1 (Homo sapiens, UniProt P27361).
T1 construct: purchased Jubilant Biosys
Nature of the series: ERK1 HTRF (biochemical) assay. The procedure: (§2) ERK1 and ERK2 HTRF (Biochemical) Assays
These assays employed a homogeneous time resolved fluorescence (HTRF) technique. […] The plate was incubated at room temperature for 60 min with shaking. […] The IC50 values (half maximal inhibitory concentration values) were subsequently determined using a sigmoidal dose-response curve (variable slope) in GraphPad Prism® 5 software.
Background: Time-resolved FRET reads energy transfer from a long-lived donor to a nearby acceptor.

In the next series the target is T2, ERK2 (Homo sapiens, UniProt P28482).
T2 construct: purchased Jubilant Biosys
Put plainly: ERK2 HTRF (biochemical) assay. The procedure: as §2
These assays employed a homogeneous time resolved fluorescence (HTRF) technique. The compounds were serially diluted by half-log with concentrations ranging from 0.0005 to 10 uM in the assay buffer (50 mM Tris pH=7.5, 1 mM EGTA, 2 mM DTT, 10 mM MgCl2, 0.100 Tween-20) and 20 uL of substrate-ATP mix [1 uM Biotin-LC-Myelin Basic Protein (MBP) derivatized Peptide (Anaspec)-24 uM ATP (Sigma)] was added to each well of the assay plate. Then 10 uL of enzyme mix [25 nM ERK1 or ERK2 (Jubilant Biosys) in assay buffer] was added to each well. The plate was incubated at room temperature for 60 min with shaking. The HTRF mix [625 nM LANCER Ultra Europium-anti-phospho-MBP (Perkin Elmer) and 2 nM Phycolink® Streptavidin-Allophycocyanin (SA-APC) (Prozyme) in HTRF buffer (50 mM Tris-HCl pH=7.5, 100 mM NaCl, 0.1% BSA, 0.05% Tween20, 0.5 mM EDTA)] was prepared and 75 uL of this mix was added to the HTRF plate. After incubation for 60 min at room temperature, 10 uL of the reaction mixture was transferred to the HTRF assay plate and incubated for 45 min at room temperature with shaking. Plate was read using Pherastar in HTRF mode (excitation 337 nm, emission 665 & 620 nm). The IC50 values (half maximal inhibitory concentration values) were subsequently determined using a sigmoidal dose-response curve (variable slope) in GraphPad Prism® 5 software.

In series [2] the test system is HT-29 (colorectal carcinoma, B-RafV600E) cells. Put plainly: Cell proliferation (Alamar Blue) assay, HT-29. The series is classed as cell-based, human. Conditions: Homo sapiens, HT-29, HT29 cells. In a few lines: (§3)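 A 72 h exposure to compound (3-fold series, typically 0.0005 to 10 uM) of cells seeded at 5000/well precedes a 1-3 h Alamar Blue (1×) incubation. Growth inhibition is quantified by fluorescence and fitted to give IC50.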

Series [3] deals with HCT116 (colorectal carcinoma, K Ras G13D) cells. Put plainly: Cell proliferation (Alamar Blue) assay, HCT116. The series is classed as cell-based, human. Conditions: Homo sapiens, HCT-116, HCT116 cells. In outline: as §3
Background: Alamar Blue is a resazurin reagent that responds to reducing activity.

Series [4] deals with phosphorylation of RSK1(S380) (the downstream target of ERK1/2). Put plainly: Phospho-RSK1(S380) ELISA assay in HT-29 cells. The series is classed as cell-based, human. Conditions: Homo sapiens, HT-29, HT29 cells, read-out: Mechanistic Cell Assay RSK1 Phos HT29 IC50. In a few lines:
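IC50 values derive from a variable-slope sigmoidal fit of sandwich-ELISA signal (450 nm) for RSK1 Ser380 phosphorylation. The cells were B-RafV600E HT-29 colorectal line, exposed to serially diluted compound for 2 h after overnight seeding, then lysed at 4° C.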
A general note: ELISA stands for enzyme-linked immunosorbent assay.

The test system of series [5] is human melanoma xenograft model (A375) harboring B-RAF V600E mutation. Nature of the series: A375 human melanoma xenograft model, tumor growth inhibition. The format is in vivo, mice. The settings on record: 50 mg/kg BID orally for 19 days. The method, then:
as §1, with “When the tumor volume reached 120-150 mm^3 (about 3-4 weeks after injection) the animals were randomized into different groups so that their tumor volume was approximately the same in all groups.” left out
For PO dosing, the compounds were prepared in a formulation containing 0.5% Methyl cellulose and 0.01% Tween 80. […] Tumors size and body weights were measured twice or thrice in a week. […]
Changes in tumor volume (Δ volumes) for each treated (T) and control (C) group were calculated by subtracting the mean tumor volume on the first day of treatment (starting day) from the mean tumor volume on the specified observation day. […] Percentage tumor growth inhibition was calculated as [100−% T/C]. Percentage body weight change was calculated as [(Body weight on specified observation day−Body weight on starting day)/Body weight on starting day]×100. […]

Like-named read-outs stand apart in the source and are kept apart here. Some results are limits rather than exact numbers.

T2 sequence (P28482 whole entry): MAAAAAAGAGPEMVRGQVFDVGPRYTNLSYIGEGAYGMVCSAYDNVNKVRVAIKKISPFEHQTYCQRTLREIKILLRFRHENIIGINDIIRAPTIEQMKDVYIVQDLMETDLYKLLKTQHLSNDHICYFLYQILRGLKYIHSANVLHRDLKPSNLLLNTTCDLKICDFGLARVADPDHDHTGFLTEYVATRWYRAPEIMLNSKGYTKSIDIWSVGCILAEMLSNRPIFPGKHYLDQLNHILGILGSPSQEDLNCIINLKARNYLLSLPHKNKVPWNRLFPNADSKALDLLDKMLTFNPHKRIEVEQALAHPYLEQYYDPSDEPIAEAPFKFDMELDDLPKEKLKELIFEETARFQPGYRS
T1 sequence (P27361 whole entry): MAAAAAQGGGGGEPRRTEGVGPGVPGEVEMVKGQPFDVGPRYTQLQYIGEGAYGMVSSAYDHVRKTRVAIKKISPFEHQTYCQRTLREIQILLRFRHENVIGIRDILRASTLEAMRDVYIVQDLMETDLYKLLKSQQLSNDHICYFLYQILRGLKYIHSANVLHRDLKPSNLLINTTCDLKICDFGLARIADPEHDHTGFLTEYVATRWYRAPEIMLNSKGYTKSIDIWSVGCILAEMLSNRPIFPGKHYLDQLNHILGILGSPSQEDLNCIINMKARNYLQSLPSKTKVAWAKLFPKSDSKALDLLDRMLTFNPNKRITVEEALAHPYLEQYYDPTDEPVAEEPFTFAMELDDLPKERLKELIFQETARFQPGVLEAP

On to `Cc1cnc(NC2CCOCC2)nc1-n1cnc(C(=O)N[C@H](CO)c2cccc(Cl)c2)c1` [Example 211], for which, in series [1], the inhibition (commonly the percentage by which the read-out fell short of the control) at 50 mg/kg is about 84%.
In turn, `Cc1cnc(NC2CCOCC2)nc1-n1cnc(C(=O)NC(CO)c2cccc(Cl)c2)c1` (stereo not shown) [Example 201] gave an inhibition at 50 mg/kg in series [1] of about 66%.
As for `Cc1cnc(N[C@H]2CCOC2)nc1-n1cnc(C(=O)NCc2c(Cl)cccc2C(F)(F)F)c1` [Example 322, (S)-N-(2-chloro-6-(trifluoromethyl)benzyl)-1-(5-methyl-2-((tetrahydrofuran-3-yl)amino)pyrimidin-4-yl)-1H-imidazole-4-carboxamide], the IC50 – broadly, the concentration that gives 50% inhibition – against ERK1 (HTRF) is 500 to 2500 nM; at ERK2 (HTRF), 500 to 2500 nM; in series [2], over 2500 nM; in series [3] it was over 2500 nM; in series [4], over 2500 nM.
On to `Cc1cnc(N[C@H]2CCOC2)nc1-n1cnc(C(=O)N[C@H](CN)c2cccc(Cl)c2)c1` [Example 255, N-((S)-2-amino-1-(3-chlorophenyl)ethyl)-1-(5-methyl-2-(((S)-tetrahydrofuran-3-yl)amino)pyrimidin-4-yl)-1H-imidazole-4-carboxamide], for which the IC50 in series [2], in series [3] and in series [4] (phospho-RSK1(S380)) was at most 100 nM in each case. Moreover, in series [5], the body weight loss result was “no significant body weight loss”.
As to `Cc1cnc(N[C@H]2CCOC2)nc1-n1cnc(C(=O)NC(CN)c2cc(F)cc(Cl)c2)c1` (stereo partly drawn) [Example 282, N-(2-amino-1-(3-chloro-5-fluorophenyl)ethyl)-1-(5-methyl-2-(((S)-tetrahydrofuran-3-yl)amino)pyrimidin-4-yl)-1H-imidazole-4-carboxamide], the IC50 at ERK1 (HTRF biochemical assay) was under 50 nM; on ERK2 (HTRF biochemical assay), at most 50 nM; in series [2], at most 100 nM; in series [3], at most 100 nM; in series [4] (phospho-RSK1(S380)), at most 100 nM.
Turning to `Cc1cnc(NC2CCOCC2)nc1-n1cnc(C(=O)N[C@H](CN)c2cc(F)cc(Cl)c2)c1` [Compound #275, (S)—N-(2-Amino-1-(3-chloro-5-fluorophenyl)ethyl)-1-(5-methyl-2-((tetrahydro-2H-pyran-4-yl)amino)pyrimidin-4-yl)-1H-imidazole-4-carboxamide], the IC50 on ERK1 (HTRF biochemical assay) is under 50 nM; against ERK2 (HTRF biochemical assay), at most 50 nM; in series [2] it was at most 100 nM; in series [3], at most 100 nM; in series [4] (phospho-RSK1(S380)) it was at most 100 nM.
`Cc1cnc(N[C@H]2CCOC2)nc1-n1cnc(C(=O)NCc2ccc(Cl)c(F)c2)c1` [Example 324, (S)-N-(4-chloro-3-fluorobenzyl)-1-(5-methyl-2-((tetrahydrofuran-3-yl)amino)pyrimidin-4-yl)-1H-imidazole-4-carboxamide]: the IC50 was under 50 nM on ERK1 (HTRF); at most 50 nM against ERK2 (HTRF); over 2500 nM in series [2]; over 2500 nM in series [3]; 500 to 2500 nM in series [4].
Regarding `Cc1cnc(N[C@H]2CCOC2)nc1-n1cnc(C(=O)NCc2cccc(C(F)(F)F)c2Cl)c1` [Example 317, (S)-N-(2-chloro-3-(trifluoromethyl)benzyl)-1-(5-methyl-2-((tetrahydrofuran-3-yl)amino)pyrimidin-4-yl)-1H-imidazole-4-carboxamide], the IC50 on ERK1 (HTRF) is 50 to 100 nM; at ERK2 (HTRF) it was at most 50 nM; in series [2], over 2500 nM; in series [3], over 2500 nM; in series [4], over 2500 nM.
